Results as given in US10517889B2, “Modulators of SMAD7 expression” (Ionis Pharmaceuticals, Inc., priority 2017, dated 2019).
Strand notation (5' to 3'): a small letter for the sugar, then the base; units joined by * are phosphorothioate-linked, units joined directly phosphodiester-linked; [ ] holds rarer units or linkages, { } end groups; capitals alone tell only the bases. k = constrained ethyl (cEt); [5mC] = 5-methylcytosine; d = 2'-deoxy (DNA)

Test system: human SMAD7 mRNA
Assay: Antisense inhibition of human SMAD7 mRNA expression in Hep3B cells by 3-10-3 cEt gapmers, 10,000 nM, electroporation (Example 2)
Assay type: cell-based
Settings: approximately 24 hours
How it was run: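 Percent inhibition of SMAD7 mRNA, relative to untreated cells, after ~24 h exposure of electroporated Hep3B cells to 10,000 nM cEt gapmer; levels by qRT-PCR, corrected for total RNA.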

[1] = SMAD7 mRNA, Hep3B cells, 10,000 nM antisense oligonucleotide, electroporation, primer probe set RTS5062, relative to untreated control cells
[2] = Hep3B cells, electroporation with 10,000 nM antisense oligonucleotide, SMAD7 mRNA by RT-PCR (RTS5062), relative to untreated control cells
[3] = Hep3B cells, electroporation with 10,000 nM antisense oligonucleotide, primer probe set RTS5062, relative to untreated control cells
[4] = Hep3B cells, 10,000 nM antisense oligonucleotide, electroporation, RT-PCR primer probe set RTS5062, relative to untreated control cells
[5] = Hep3B cells, electroporation with 10,000 nM antisense oligonucleotide, RTS5062, percent inhibition of SMAD7 mRNA relative to untreated control cells
[6] = SMAD7 mRNA, Hep3B cells, electroporation with 10,000 nM antisense oligonucleotide, primer probe set RTS5062, relative to untreated control cells

799661 (antisense k[5mC]*kT*k[5mC]*d[5mC]*dA*d[5mC]*dT*dG*d[5mC]*d[5mC]*dT*d[5mC]*d[5mC]*kT*kA*k[5mC]) [compound 799661]
% inhibition of SMAD7 mRNA expression (Hep3B cells, electroporation, 10,000 nM antisense oligonucleotide, RTS5062, relative to untreated control cells): 44%

800861 (antisense k[5mC]*k[5mC]*kA*dG*dT*dT*dG*dG*dT*dT*dT*dG*dA*kG*kA*kA) [compound 800861]
% Inhibition [1]: 32%

772733 (kG*kG*kT*dG*dA*dT*dT*dG*d[5mC]*d[5mC]*dT*dT*dG*kA*kT*kA; antisense) [compound 772733]
% Inhibition [1]: 39%

799259 (antisense kT*kG*k[5mC]*d[5mC]*d[5mC]*d[5mC]*dA*dA*dA*dA*d[5mC]*dT*d[5mC]*k[5mC]*kA*kA) [compound 799259]
% Inhibition [2]: 45%

790747 (kG*kT*kA*d[5mC]*dA*dA*dT*d[5mC]*dT*d[5mC]*d[5mC]*dT*dG*kG*kA*kA; antisense) [compound 790747]
% Inhibition [1]: 8%

798976 (antisense kT*kG*kG*dA*dT*dT*dT*d[5mC]*dT*dG*d[5mC]*dT*dT*k[5mC]*k[5mC]*k[5mC]) [compound 798976]
% Inhibition [3]: 19%

790507 (kA*kA*kG*dA*dA*dG*dT*dT*dG*dG*dG*dA*dA*kT*k[5mC]*kT; antisense) [compound 790507]
% Inhibition [4]: 0%

799414 (antisense k[5mC]*kA*kA*dA*dA*d[5mC]*d[5mC]*dA*dG*d[5mC]*d[5mC]*d[5mC]*d[5mC]*kA*kG*kA) [compound 799414]
% Inhibition [2]: 34%

799552 (kA*kG*kG*dG*dA*dA*d[5mC]*dA*dA*dT*dT*dA*d[5mC]*kA*kG*k[5mC]; antisense) [compound 799552]
% Inhibition [5]: 58%

829886 (antisense kG*kT*kG*dG*dT*d[5mC]*dA*dT*dT*dG*dG*dG*d[5mC]*k[5mC]*kG*k[5mC]) [compound 829886]
% Inhibition [6]: 6%

799823 (antisense kA*k[5mC]*kA*dG*dG*dA*dA*dA*dG*dT*dG*dG*dA*kG*kG*kA) [compound 799823]
% Inhibition [5]: 46%

799427 (antisense kG*kT*k[5mC]*d[5mC]*dA*dG*dG*d[5mC]*d[5mC]*dT*d[5mC]*d[5mC]*d[5mC]*kA*kG*kA) [compound 799427]
% Inhibition [2]: 20%

798727 (antisense kT*kG*kG*d[5mC]*dA*d[5mC]*d[5mC]*dT*d[5mC]*dG*d[5mC]*dA*d[5mC]*k[5mC]*kG*k[5mC]) [compound 798727]
% inhibition of SMAD7 mRNA expression [3]: 51%

790471 (k[5mC]*kG*k[5mC]*d[5mC]*dG*dG*dG*d[5mC]*dG*d[5mC]*dA*d[5mC]*dG*kG*k[5mC]*kT; antisense) [compound 790471]
% Inhibition [1]: 4%

790659 (kT*kG*k[5mC]*d[5mC]*dA*dG*dT*d[5mC]*dT*d[5mC]*dA*dA*dA*kT*kG*kG; antisense) [compound 790659]
% Inhibition [1]: 27%

799645 (k[5mC]*kA*kA*dA*dG*dA*dT*dG*dA*dT*dA*dG*d[5mC]*kT*kT*k[5mC]; antisense) [compound 799645]
% Inhibition [5]: 45%

799970 (kT*k[5mC]*k[5mC]*dT*d[5mC]*dA*dG*dG*dA*dA*dA*d[5mC]*dA*k[5mC]*kA*kG; antisense) [compound 799970]
% Inhibition [4]: 43%

798773 (kT*kG*kA*d[5mC]*dT*dT*d[5mC]*d[5mC]*dG*dA*dG*dG*dA*kA*kT*kG; antisense) [compound 798773]
% inhibition of SMAD7 mRNA expression [3]: 40%

829908 (antisense k[5mC]*kT*kA*d[5mC]*d[5mC]*dG*dG*d[5mC]*dT*dG*dT*dT*dG*kA*kA*kG) [compound 829908]
% Inhibition [6]: 1%

799902 (antisense kG*kG*kA*dA*dG*dA*d[5mC]*dA*d[5mC]*dA*dA*dG*dG*kG*k[5mC]*kT) [compound 799902]
% Inhibition [2]: 34%

799178 (antisense kA*kG*k[5mC]*dT*dT*dA*dT*dG*dT*dT*dA*dA*dA*kG*kT*k[5mC]) [compound 799178]
% Inhibition [3]: 34%

829935 (k[5mC]*kT*kA*dG*dG*dT*dG*dA*dT*dA*dA*d[5mC]*dA*k[5mC]*k[5mC]*k[5mC]; antisense) [compound 829935]
% Inhibition [6]: 0%

798703 (antisense kG*kT*k[5mC]*d[5mC]*dG*dT*d[5mC]*dG*d[5mC]*d[5mC]*d[5mC]*d[5mC]*dT*kT*k[5mC]*kT) [compound 798703]
% inhibition of SMAD7 mRNA expression [3]: 68%

829760 (antisense k[5mC]*k[5mC]*kG*d[5mC]*d[5mC]*dT*dT*dG*d[5mC]*d[5mC]*d[5mC]*dA*dG*kG*k[5mC]*kA) [compound 829760]
% Inhibition [1]: 3%

799117 (antisense kG*k[5mC]*kT*dT*dA*dA*d[5mC]*dA*d[5mC]*dA*d[5mC]*dA*dG*kG*kA*kT) [compound 799117]
% Inhibition [3]: 46%

830068 (kG*kT*kG*dA*dA*dA*dT*dG*dG*dT*dG*d[5mC]*dT*k[5mC]*kT*kG; antisense) [compound 830068]
% Inhibition [2]: 39%

799370 (antisense kG*kG*k[5mC]*dA*d[5mC]*dT*d[5mC]*dA*d[5mC]*dT*dA*dA*dG*kT*k[5mC]*kT) [compound 799370]
% Inhibition [2]: 13%

830152 (antisense k[5mC]*k[5mC]*k[5mC]*dG*dG*dA*dG*dA*dG*dG*dA*dA*dG*k[5mC]*k[5mC]*kT) [compound 830152]
% Inhibition [2]: 23%

800005 (k[5mC]*k[5mC]*kG*d[5mC]*dA*d[5mC]*d[5mC]*d[5mC]*dA*dG*dA*d[5mC]*d[5mC]*k[5mC]*k[5mC]*kT; antisense) [compound 800005]
% Inhibition [2]: 27%

799363 (kG*kA*kG*dT*dT*dA*dT*d[5mC]*d[5mC]*d[5mC]*d[5mC]*dA*dT*k[5mC]*kA*kA; antisense) [compound 799363]
% inhibition of SMAD7 mRNA expression [3]: 49%

799994 (kA*k[5mC]*kT*dT*dG*dG*dA*dT*dA*dA*dT*dG*dA*kA*kG*kT; antisense) [compound 799994]
% Inhibition [4]: 2%

798910 (k[5mC]*kA*k[5mC]*dG*d[5mC]*dG*dG*d[5mC]*dT*dA*d[5mC]*d[5mC]*dG*kG*k[5mC]*kT; antisense) [compound 798910]
% Inhibition [4]: 42%

799423 (antisense kT*kA*k[5mC]*d[5mC]*dA*dG*dG*d[5mC]*d[5mC]*d[5mC]*d[5mC]*dA*dG*k[5mC]*k[5mC]*k[5mC]) [compound 799423]
% inhibition of SMAD7 mRNA expression [3]: 14%

798826 (k[5mC]*kT*k[5mC]*d[5mC]*dT*dG*dG*dA*d[5mC]*dA*d[5mC]*dA*dG*kT*kA*kG; antisense) [compound 798826]
% Inhibition [4]: 14%

790855 (kA*k[5mC]*k[5mC]*dT*dT*dT*dT*d[5mC]*d[5mC]*dG*dG*dT*dA*kT*kT*kT; antisense) [compound 790855]
% Inhibition [1]: 40%

829893 (antisense kT*kG*kA*dT*d[5mC]*dT*dG*d[5mC]*dA*d[5mC]*dG*dG*dT*kA*kA*kA) [compound 829893]
% Inhibition [6]: 14%

799197 (antisense k[5mC]*kT*k[5mC]*dA*dA*dA*dG*d[5mC]*dA*d[5mC]*dT*dA*d[5mC]*kA*kA*kT) [compound 799197]
% inhibition of SMAD7 mRNA expression [3]: 34%

799360 (k[5mC]*k[5mC]*kA*dA*dG*dA*d[5mC]*dA*d[5mC]*dT*dT*d[5mC]*dT*k[5mC]*kT*k[5mC]; antisense) [compound 799360]
% inhibition of SMAD7 mRNA expression [3]: 42%

799612 (kA*kA*kA*d[5mC]*dA*dG*d[5mC]*dA*d[5mC]*dA*d[5mC]*dA*dG*kG*kG*k[5mC]; antisense) [compound 799612]
% Inhibition [5]: 50%

798968 (antisense k[5mC]*kG*kA*dT*d[5mC]*dA*dT*dA*d[5mC]*d[5mC]*dT*dG*d[5mC]*k[5mC]*k[5mC]*k[5mC]) [compound 798968]
% inhibition of SMAD7 mRNA expression [3]: 62%

799349 (kA*kG*k[5mC]*dG*d[5mC]*dA*d[5mC]*dT*d[5mC]*dG*dG*dG*dA*kG*kA*kT; antisense) [compound 799349]
% Inhibition [2]: 0%

829851 (antisense k[5mC]*kT*kT*dG*dT*dT*dG*dT*d[5mC]*d[5mC]*dG*dA*dA*kT*kT*kG) [compound 829851]
% Inhibition [6]: 31%

798694 (antisense kG*kT*k[5mC]*d[5mC]*dT*d[5mC]*dG*d[5mC]*d[5mC]*dG*d[5mC]*d[5mC]*dG*kG*kG*k[5mC]) [compound 798694]
% Inhibition [2]: 0%

798851 (kA*k[5mC]*k[5mC]*dA*dT*d[5mC]*d[5mC]*dA*d[5mC]*d[5mC]*dT*d[5mC]*d[5mC]*k[5mC]*kG*k[5mC]; antisense) [compound 798851]
% Inhibition [2]: 21%

800034 (k[5mC]*k[5mC]*kG*d[5mC]*dA*d[5mC]*dG*dA*d[5mC]*dA*dT*d[5mC]*d[5mC]*k[5mC]*k[5mC]*k[5mC]; antisense) [compound 800034]
% Inhibition [4]: 47%
